Measurements reported in patent publication US20100016232A1, “Treatment Of Inflammatory Diseases With Mammal Beta Defensins” (Novozymes A/S, priority 2008, published 2010).
Where no end group is shown, it is not given here.

Assays:
[1] = system: DSS-induced colitis in the mouse; assay: 10-day DSS-induced colitis, Disease Activity Index (Example 5); format: in vivo
Protocol: Animals were divided into 5 experimental groups.
Colitis was induced in mice by supplementing their drinking water with DSS 2% for 7 days.
Daily clinical assessment of DSS-treated animals was carried out, with the calculation of a validated clinical Disease Activity Index (DAI) ranging from 0 to 4 according to the following parameters: stool consistency, presence or absence of rectal bleeding and weight loss:
Bodyweight loss was calculated as the percent difference between the original bodyweight (Day 1) and the actual bodyweight on each experimental day (2-10).
The appearance of diarrhoea is defined as mucus/faecal material adherent to anal fur. Rectal bleeding is defined as diarrhoea containing visible blood/mucus or gross rectal bleeding. The maximum score of the DAI each day is 12.

[2] = system: TNF production in supernatant from a human monocyte cell line (MUTZ-3); assay: TNF production, human monocyte cell line MUTZ-3; format: cell-based
Protocol: The human myeloid leukaemia-derived cell line MUTZ-3 (DSMZ, Braunschweig, Germany) was maintained in a-MEM (Sigma M4526), supplemented with 20% [volume/volume (v/v)] fetal bovine serum (Sigma F6178) and 40 ng/ml rhGM-CSF (R&D Systems 215-GM-050).
Cytokine production in supernatants was measured by flow cytometry with a human inflammation cytometric bead array (CBA) according to manufacturer's instructions (BD) on a FACSarray flow cytometer. The following cytokines were measured: IL-8, IL-1β, IL-10, TNF, IL-12 p70, IL-6. In some experiments, cytokines were measured by ELISA kits from R&D systems (IL-10, TNF-α, IL-1β) according to the manufacturer' instruction.

PBMC = PBMC viability, Alamar Blue; format: cell-based, human
Protocol: Peripheral blood was drawn from healthy volunteers (with approval from the relevant ethical committee in Denmark). Heparinized blood was diluted 1/1 v/v with RPMI and were subjected to Ficoll density centrifugation within 2 h of drawing. Plasma was collected from the top from individual donors and was kept on ice until it was used at 2% in the culture medium (autologous culture medium). Isolated PBMC were resuspended in autologous culture medium and seeded in 96-well culture plates with 255.000 cells per well in a total of 200 μl. […] The concentrations used for stimulation were optimized on 3 different donors in initial experiments, for LPS two different concentrations were used to be sure to be on a cytokine level that is possible to modulate. In some experiments PBMC were treated with Dexamethason and Indomethacin alone and together with LPS or LTA as a control on downregulation of inflammatory cytokines. The supernatants were collected after incubation at 37° C. for 24 hours, and stored at −80° C. until cytokine measurement. Viability was measured by Alamar Blue (Biosource, DALL 1100) in all experiments and in some cases also by MTS (Promega) according to manufacturer's instruction and was in some experiments also judged by counting of the cells by a Nucleocounter.

Question: With “hBD2: human beta defensin 2, SEQ ID NO:2; produced recombinantly in E. coli (Example 1); hBD2 of Tables 16-18 was prepared by chemical synthesis (GIGDPVTCLKSGAICHPVFCPRRYKQIGTCGLPGTKCCKKP; ends and bridges not checked; cysteine pairing not given here; listed as Homo sapiens)” as the substance, how does the DAI score ([1]; 0.1 mg/kg i.v. daily, Day 1) read?
Answer: 0.00

Question: What about the DAI score ([1]; 0.1 mg/kg i.v. daily, Day 2) of the same substance?
Answer: 0.20

Question: What about the DAI score ([1]; 0.1 mg/kg i.v. daily, Day 3) of the same substance?
Answer: 0.80

Question: What about the DAI score ([1]; 0.1 mg/kg i.v. daily, Day 4) of the same substance?
Answer: 2.90

Question: And the DAI score ([1]; 0.1 mg/kg i.v. daily, Day 5)?
Answer: 2.80

Question: What about the DAI score ([1]; 0.1 mg/kg i.v. daily, Day 6) of the same substance?
Answer: 3.20

Question: And the DAI score ([1]; 1 mg/kg i.v. daily, Day 1)?
Answer: 0.00

Question: What about the DAI score ([1]; 1 mg/kg i.v. daily, Day 2) of the same substance?
Answer: 0.00

Question: And the DAI score ([1]; 1 mg/kg i.v. daily, Day 3)?
Answer: 0.22

Question: And the DAI score ([1]; 1 mg/kg i.v. daily, Day 4)?
Answer: 2.22

Question: What about the DAI score ([1]; 1 mg/kg i.v. daily, Day 5) of the same substance?
Answer: 2.44

Question: What about the DAI score ([1]; 1 mg/kg i.v. daily, Day 6) of the same substance?
Answer: 2.89

Question: And the DAI score ([1]; 1 mg/kg i.v. daily, Day 7)?
Answer: 2.22

Question: And the DAI score ([1]; 1 mg/kg i.v. daily, Day 8)?
Answer: 3.67

Question: What about the DAI score ([1]; 1 mg/kg i.v. daily, Day 9) of the same substance?
Answer: 5.22

Question: And the DAI score ([1]; 10 mg/kg i.v. daily, Day 1)?
Answer: 0.00

Question: What about the DAI score ([1]; 10 mg/kg i.v. daily, Day 2) of the same substance?
Answer: 0.60

Question: What about the DAI score ([1]; 10 mg/kg i.v. daily, Day 3) of the same substance?
Answer: 1.00

Question: And the DAI score ([1]; 10 mg/kg i.v. daily, Day 4)?
Answer: 3.67

Question: And the DAI score ([1]; 10 mg/kg i.v. daily, Day 5)?
Answer: 3.11

Question: And the DAI score ([1]; 10 mg/kg i.v. daily, Day 6)?
Answer: 3.22

Question: What about the DAI score ([1]; 10 mg/kg i.v. daily, Day 7) of the same substance?
Answer: 2.11

Question: What about the DAI score ([1]; 10 mg/kg i.v. daily, Day 8) of the same substance?
Answer: 4.11

Question: What about the DAI score ([1]; 10 mg/kg i.v. daily, Day 9) of the same substance?
Answer: 6.78

Question: What about the DAI score ([1]; 10 mg/kg i.v. daily, Day 10) of the same substance?
Answer: 7.33

Question: And the TNF ([2]; LPS 1.5 μg/ml, hBD2 1 μg/ml)?
Answer: 6.61 pg/mL

Question: And the TNF ([2]; LPS 1.5 μg/ml, hBD2 10 μg/ml)?
Answer: 3.93 pg/mL

Question: And the TNF ([2]; LPS 1.5 μg/ml, hBD2 100 μg/ml)?
Answer: 3.93 pg/mL

Question: What about the TNF ([2]; LTA 1.5 μg/ml, hBD2 1 μg/ml) of the same substance?
Answer: 1.75 pg/mL

Question: What about the TNF ([2]; LTA 1.5 μg/ml, hBD2 10 μg/ml) of the same substance?
Answer: 3.76 pg/mL

Question: What about the TNF ([2]; LTA 1.5 μg/ml, hBD2 100 μg/ml) of the same substance?
Answer: 2.64 pg/mL

Question: What about the TNF ([2]; Medium, hBD2 1 μg/ml) of the same substance?
Answer: 2.21 pg/mL

Question: What about the TNF ([2]; Medium, hBD2 10 μg/ml) of the same substance?
Answer: 2.60 pg/mL

Question: And the TNF ([2]; Medium, hBD2 100 μg/ml)?
Answer: 0.00 pg/mL

Question: And the “Viability, Alamar Blue” value (PBMC; LPS 0.6 ng/ml, hBD2 1 μg/ml)?
Answer: 4230588 RFU

Question: And the “Viability, Alamar Blue” value (PBMC; LPS 0.6 ng/ml, hBD2 10 μg/ml)?
Answer: 4664362 RFU

Question: What about the “Viability, Alamar Blue” value (PBMC; LPS 0.6 ng/ml, hBD2 100 μg/ml) of the same substance?
Answer: 4831188 RFU

Question: And the “Viability, Alamar Blue” value (PBMC; LPS 20 ng/ml, hBD2 1 μg/ml)?
Answer: 4561739 RFU

Question: And the “Viability, Alamar Blue” value (PBMC; LPS 20 ng/ml, hBD2 10 μg/ml)?
Answer: 4623818 RFU

Question: And the “Viability, Alamar Blue” value (PBMC; LPS 20 ng/ml, hBD2 100 μg/ml)?
Answer: 4765256 RFU

Question: What about the “Viability, Alamar Blue” value (PBMC; LTA 1.25 μg/ml, hBD2 1 μg/ml) of the same substance?
Answer: 4148294 RFU

Question: What about the “Viability, Alamar Blue” value (PBMC; LTA 1.25 μg/ml, hBD2 10 μg/ml) of the same substance?
Answer: 4677870 RFU

Question: And the “Viability, Alamar Blue” value (PBMC; LTA 1.25 μg/ml, hBD2 100 μg/ml)?
Answer: 4664185 RFU

Question: And the “Viability, Alamar Blue” value (PBMC; Medium, hBD2 1 μg/ml)?
Answer: 4064143 RFU

Question: What about the “Viability, Alamar Blue” value (PBMC; Medium, hBD2 10 μg/ml) of the same substance?
Answer: 3683369 RFU

Question: And the “Viability, Alamar Blue” value (PBMC; Medium, hBD2 100 μg/ml)?
Answer: 3950053 RFU

Question: And the “cytotoxic effect on the cells” value (PBMC; human PBMC, MTS and Alamar Blue, Tables 4 and 5)?
Answer: no cytotoxic effect
